According to patent publication US8895549B2, “Aminoalcohol substituted 2,3-dihydroimidazo[1,2-c]quinazoline derivatives useful for treating hyper-proliferative disorders and diseases associated with angiogenesis” (Bayer Intellectual Property GmbH, priority 2010, dated 2014):
Counter-ions that a name gives are not always drawn.

Experiments:
[1] = target: PI3Kα (complex of human p110α and human p85α) (Homo sapiens (Human), UniProt P42336); assay: PI3Kα kinase assay (HTRF-based PI3K inhibition assay); type: biochemical; settings: for inhibition at 0.93 µM: 0.93 μM compound, read-out: PI3K alpha average % Inhibition at 0.93 μM; for IC50: 10 μM ATP, 10 μM PIP2, 20 min at 22° C., read-out: average IC50 in the PI3K alpha biochemical assay;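 for all read-outs here: PIP3 product detected by HTRF, reading resonance energy transfer from Europium-labeled anti-GST antibody to Streptavidin-APC, as displacement of biotinylated PIP3 tracer from the GST-PH domain complex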
Chain of PI3Kα (complex of human p110α and human p85α) (P42336 whole entry, the tested form may be a part): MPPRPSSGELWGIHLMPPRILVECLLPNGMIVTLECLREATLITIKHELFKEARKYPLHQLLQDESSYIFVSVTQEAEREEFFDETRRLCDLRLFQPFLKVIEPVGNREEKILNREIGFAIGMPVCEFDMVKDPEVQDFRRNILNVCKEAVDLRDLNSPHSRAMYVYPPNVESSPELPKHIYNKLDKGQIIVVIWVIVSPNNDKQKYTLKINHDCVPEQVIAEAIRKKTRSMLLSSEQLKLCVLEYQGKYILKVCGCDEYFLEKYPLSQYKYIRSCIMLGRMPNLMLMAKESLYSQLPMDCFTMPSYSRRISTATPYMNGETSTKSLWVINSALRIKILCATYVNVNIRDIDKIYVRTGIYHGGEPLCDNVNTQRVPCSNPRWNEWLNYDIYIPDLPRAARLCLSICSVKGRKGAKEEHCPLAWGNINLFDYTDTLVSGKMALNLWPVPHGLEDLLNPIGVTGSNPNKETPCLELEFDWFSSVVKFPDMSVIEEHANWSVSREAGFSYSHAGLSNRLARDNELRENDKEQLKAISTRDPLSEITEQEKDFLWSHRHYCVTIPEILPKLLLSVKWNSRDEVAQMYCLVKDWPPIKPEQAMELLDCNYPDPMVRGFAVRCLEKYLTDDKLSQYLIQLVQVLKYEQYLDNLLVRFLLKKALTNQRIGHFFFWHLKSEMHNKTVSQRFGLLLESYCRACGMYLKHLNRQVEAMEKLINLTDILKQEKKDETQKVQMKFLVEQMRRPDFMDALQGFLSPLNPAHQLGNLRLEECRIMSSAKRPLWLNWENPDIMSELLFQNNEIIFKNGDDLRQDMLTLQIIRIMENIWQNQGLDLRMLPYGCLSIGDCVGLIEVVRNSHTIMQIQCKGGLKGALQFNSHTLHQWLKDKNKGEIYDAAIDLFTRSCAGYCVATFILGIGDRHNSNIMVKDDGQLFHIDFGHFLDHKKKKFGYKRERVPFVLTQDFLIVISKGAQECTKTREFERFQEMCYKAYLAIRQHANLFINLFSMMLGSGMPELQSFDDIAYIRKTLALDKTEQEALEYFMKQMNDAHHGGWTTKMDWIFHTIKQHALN
Chain of PI3Kα (complex of human p110α and human p85α) (P27986 whole entry partner, the tested form may be a part): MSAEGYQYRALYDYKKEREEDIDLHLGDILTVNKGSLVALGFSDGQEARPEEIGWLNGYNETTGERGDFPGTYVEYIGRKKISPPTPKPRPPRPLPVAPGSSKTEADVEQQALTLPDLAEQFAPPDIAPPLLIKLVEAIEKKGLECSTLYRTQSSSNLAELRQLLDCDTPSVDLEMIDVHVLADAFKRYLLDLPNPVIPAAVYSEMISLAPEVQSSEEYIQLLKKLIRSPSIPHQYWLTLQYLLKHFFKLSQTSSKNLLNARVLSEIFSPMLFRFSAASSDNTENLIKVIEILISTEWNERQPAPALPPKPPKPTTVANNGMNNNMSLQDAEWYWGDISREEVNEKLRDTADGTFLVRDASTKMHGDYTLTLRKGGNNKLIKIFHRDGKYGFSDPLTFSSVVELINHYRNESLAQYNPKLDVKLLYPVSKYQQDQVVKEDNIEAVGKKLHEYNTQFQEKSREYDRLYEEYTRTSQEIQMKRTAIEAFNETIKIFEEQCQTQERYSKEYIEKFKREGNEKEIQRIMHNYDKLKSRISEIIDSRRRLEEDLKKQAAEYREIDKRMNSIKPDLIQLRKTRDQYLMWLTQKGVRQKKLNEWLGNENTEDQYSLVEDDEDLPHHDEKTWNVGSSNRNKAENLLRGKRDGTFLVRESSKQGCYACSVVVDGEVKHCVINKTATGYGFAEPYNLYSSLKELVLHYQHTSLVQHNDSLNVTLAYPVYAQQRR
From the text: (§1) Determination of % Inhibition and IC50 Values of Compounds in PI3Kα Kinase Assay
PI3Kα inhibitory activity of compounds of the present invention was quantified employing the HTRF-based PI3K inhibition assay as described below.
(§2) As reagents for the kinase reaction itself and the quantification of the reaction product, the PI3-Kinase HTRF Assay kit from Millipore (#33-017) was used. With this kit the phosphatidylinositol 3,4,5-trisphosphate (PIP3) generated in the kinase reaction is detected by displacement of a biotinylated ligand from an energy transfer complex consisting of a Europium-labeled anti-GST monoclonal antibody, a GST-tagged PH domain, biotinylated PIP3 and Streptavidin-Allophycocyanin (APC).
For the assay 50 nL of a 80-fold concentrated solution of the test compound in DMSO was pipetted into a black low volume 384-well microtiter plate (Greiner Bio-One, Frickenhausen, Germany), 3 μL of a solution of PI3Kα and phosphatidylinositol-4,5-bisphosphate (PIP2, 13.8 μM=> final conc. in 4 μl reaction volume=10 μM) in 1× reaction buffer (exact composition not disclosed by the vendor) were added and the mixture was incubated for 15 min at 22° C. to allow pre-binding of the test compounds to the enzyme before the start of the kinase reaction. The amount of PI3Kα was chosen to have the enzyme reaction in the linear range and depended on the activity of the individual lot, typical concentrations in assay were in the range of 90 ng/mL. Then the kinase reaction was started by the addition of 1 μL of a solution of adenosine triphosphate (ATP, 40 μM=> final conc. in the 4 μL assay volume is 10 μM) in reaction buffer and the resulting mixture was incubated for a reaction time of 20 min at 22° C.
The reaction was stopped by the addition of 1 μL of an stop solution (containing the biotinylated PIP3 used as a tracer), then 1 μL detection mix (containing a Europium-labeled anti-GST monoclonal antibody, a GST-tagged PH domain, and Streptavidin-Allophycocyanin) was added and resulting mixture was incubated 3 h at 22° C. to allow the formation of complexes between the detection reagents and either the PIP3 generated in the kinase reaction, or the biotinylated PIP3 added with the stop solution. Subsequently, the amount of energy transfer complex consisting of a Europium-labeled anti-GST monoclonal antibody, a GST-tagged PH domain, biotinylated PIP3 and Streptavidin-Allophycocyanin (APC) was evaluated by measurement of the resonance energy transfer from the Europium-labeled anti-GST monoclonal antibody to the Streptavidin-Allophycocyanin. Therefore, the fluorescence emissions at 620 nm and 665 nm after excitation at 350 nm were measured using a TR-FRET reader, e.g., a Pherastar (BMG Labtechnologies, Offenburg, Germany) or a Viewlux (Perkin-Elmer). The ratio of the emissions at 665 nm and at 622 nm was taken as the measure for the amount of biotinylated PIP3 bound to the GST-tagged PH domain, which is negatively correlated with the amount of PIP3 generated.

[2] = target: PI3Kβ (complex of human p110β and human p85α) (Homo sapiens (Human), UniProt P42338); assay: PI3Kβ kinase assay (HTRF-based PI3K inhibition assay); type: biochemical; settings: for inhibition at 0.93 µM: 0.93 μM compound, read-out: PI3K beta average % Inhibition at 0.93 μM; for IC50: 10 μM ATP, 10 μM PIP2, 20 min at 22° C., read-out: average IC50 in the PI3K beta biochemical assay; for PI3K beta average IC50/PI3K alpha average IC50: ratio of beta IC50 to alpha IC50;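 for all read-outs here: Kinase-made PIP3 detected by HTRF, displacing biotinylated PIP3 tracer from a complex of Europium anti-GST antibody, GST-fused PH domain and Streptavidin-APC, read as Europium-to-APC energy transfer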
Chain of PI3Kβ (complex of human p110β and human p85α) (P42338 whole entry, the tested form may be a part): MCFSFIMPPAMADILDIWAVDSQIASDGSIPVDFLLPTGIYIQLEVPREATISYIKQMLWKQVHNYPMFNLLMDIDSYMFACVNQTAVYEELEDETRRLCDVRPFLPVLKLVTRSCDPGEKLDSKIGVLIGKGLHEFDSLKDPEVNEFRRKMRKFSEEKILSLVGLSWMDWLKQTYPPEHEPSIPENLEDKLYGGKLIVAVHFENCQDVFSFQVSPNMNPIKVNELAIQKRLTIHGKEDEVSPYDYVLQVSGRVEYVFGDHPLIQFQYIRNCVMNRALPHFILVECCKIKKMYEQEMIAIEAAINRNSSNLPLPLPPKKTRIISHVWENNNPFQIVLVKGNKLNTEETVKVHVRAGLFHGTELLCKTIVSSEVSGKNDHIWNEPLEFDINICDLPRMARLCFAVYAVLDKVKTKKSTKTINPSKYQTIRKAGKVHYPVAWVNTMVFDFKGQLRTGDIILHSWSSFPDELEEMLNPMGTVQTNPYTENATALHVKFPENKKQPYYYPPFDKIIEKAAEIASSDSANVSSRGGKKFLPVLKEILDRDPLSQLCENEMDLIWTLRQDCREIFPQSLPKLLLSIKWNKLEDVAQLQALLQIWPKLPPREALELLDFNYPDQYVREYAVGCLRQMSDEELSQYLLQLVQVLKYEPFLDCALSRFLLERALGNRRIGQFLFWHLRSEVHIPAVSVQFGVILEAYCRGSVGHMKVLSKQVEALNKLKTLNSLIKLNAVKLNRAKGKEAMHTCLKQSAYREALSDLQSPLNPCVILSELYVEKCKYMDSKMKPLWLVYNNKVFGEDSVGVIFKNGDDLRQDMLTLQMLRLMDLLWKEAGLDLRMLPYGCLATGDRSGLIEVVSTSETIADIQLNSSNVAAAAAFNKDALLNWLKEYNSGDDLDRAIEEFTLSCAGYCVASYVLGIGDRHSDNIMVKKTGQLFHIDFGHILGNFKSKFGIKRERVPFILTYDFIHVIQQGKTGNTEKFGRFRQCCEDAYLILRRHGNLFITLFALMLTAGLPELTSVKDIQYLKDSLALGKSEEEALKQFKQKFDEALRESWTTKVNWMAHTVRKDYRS
Chain of PI3Kβ (complex of human p110β and human p85α) (P27986 whole entry partner, the tested form may be a part): as the sequence (P27986 whole entry partner, the tested form may be a part) above
From the text: as §1
PI3Kα inhibitory activity of compounds of the present invention was quantified employing the HTRF based PI3K inhibition assay as described below.
as §2
For the assay 50 nL of a 80-fold concentrated solution of the test compound in DMSO was pipetted into a black low volume 384-well microtiter plate (Greiner Bio-One, Frickenhausen, Germany), 3 μl of a solution of PI3Kβ and phosphatidylinositol-4,5-bisphosphate (PIP2, 13.8 μM=> final conc. in 4 μl reaction volume=10 μM) in 1× reaction buffer (exact composition not disclosed by the vendor) were added and the mixture was incubated for 15 min at 22° C. to allow pre-binding of the test compounds to the enzyme before the start of the kinase reaction. The amount of PI3Kβ was chosen to have the enzyme reaction in the linear range and depended on the activity of the individual lot, typical concentrations in assay were in the range of 120 ng/mL. Then the kinase reaction was started by the addition of 1 μL of a solution of adenosine triphosphate (ATP, 40 μM=> final conc. in the 4 μl assay volume is 10 μM) in reaction buffer and the resulting mixture was incubated for a reaction time of 20 min at 22° C.
The reaction was stopped by the addition of 1 μL of an stop solution (containing the biotinylated PIP3 used as a tracer). Then 1 μL detection mix (containing a Europium-labeled anti-GST monoclonal antibody, a GST-tagged PH domain, and Streptavidin-Allophycocyanin) was added and resulting mixture was incubated for 3 h at 22° C. to allow the formation of complexes between the detection reagents and either the PIP3 generated in the kinase reaction, or the biotinylated PIP3 added with the stop solution. Subsequently the amount of energy transfer complex consisting of a Europium-labeled anti-GST monoclonal antibody, a GST-tagged PH domain, biotinylated PIP3 and Streptavidin-Allophycocyanin (APC) was evaluated by measurement of the resonance energy transfer from the Europium-labeled anti-GST monoclonal antibody to the Streptavidin-Allophycocyanin. Therefore, the fluorescence emissions at 620 nm and 665 nm after excitation at 350 nm were measured using a TR-FRET reader, e.g., a Pherastar (BMG Labtechnologies, Offenburg, Germany) or a Viewlux (Perkin-Elmer). The ratio of the emissions at 665 nm and at 622 nm were taken as the measure for the amount of biotinylated PIP3 bound to the GST-tagged PH domain, which is negatively correlated with the amount of PIP3 generated.

| Compound | inhibition at 0.93 µM [1] [%] | IC50 [1] [nM] | inhibition at 0.93 µM [2] [%] | IC50 [2] [nM] | PI3K beta average IC50/PI3K alpha average IC50 [2] |
| --- | --- | --- | --- | --- | --- |
| COc1c(OC[C@H](O)CN2CCCC2)ccc2c1N=C(NC(=O)c1cnco1)N1CCN=C21 [Example 40, N-(8-{[(2R)-2-Hydroxy-3-(pyrrolidin-1-yl)propyl]oxy}-7-methoxy-2,3-dihydroimidazo[1,2-c]quinazolin-5-yl)-1,3-oxazole-5-carboxamide] | 88 | > 50 | 72.7 | > 50 | – |
| COc1c(OC[C@H](O)CN2CCOCC2)ccc2c1N=C(NC(=O)c1cccnc1)N1CCN=C21 [Example 2, N-(8-{[(2R)-2-hydroxy-3-(morpholin-4-yl)propyl]oxy}-7-methoxy-2,3-dihydroimidazo[1,2-c]quinazolin-5-yl)pyridine-3-carboxamide] | 97.6 | – | 94.4 | – | – |
| COc1c(OC[C@H](O)CN2CCOCC2)ccc2c1N=C(NC(=O)c1sc(N)nc1C)N1CCN=C21 [Example 39, 2-Amino-N-(8-{[(2R)-2-hydroxy-3-(morpholin-4-yl)propyl]oxy}-7-methoxy-2,3-dihydroimidazo[1,2-c]quinazolin-5-yl)-4-methyl-1,3-thiazole-5-carboxamide] | 110 | < 10 | 122 | < 10 | 5.32 |
| COc1c(OC[C@H](O)CN2C[C@@H](C)O[C@@H](C)C2)ccc2c1N=C(NC(=O)c1cccnc1)N1CCN=C21 [Example 4, N-[8-({(2R)-3-[(2R,6S)-2,6-dimethylmorpholin-4-yl]-2-hydroxypropyl}oxy)-7-methoxy-2,3-dihydroimidazo[1,2-c]quinazolin-5-yl]pyridine-3-carboxamide] | 99.8 | 10 to 50 | 96.4 | > 50 | 4.85 |
| COc1c(OC[C@H](O)CN2C[C@@H](C)O[C@@H](C)C2)ccc2c1N=C(NC(=O)c1cnc(N)nc1)N1CCN=C21 [Example 27, 2-amino-N-[8-({(2R)-3-[(2R,6S)-2,6-dimethylmorpholin-4-yl]-2-hydroxypropyl}oxy)-7-methoxy-2,3-dihydroimidazo[1,2-c]quinazolin-5-yl]pyrimidine-5-carboxamide] | 97.9 | < 10 | 102 | 10 to 50 | 5.52 |
| COc1c(OC[C@@H](O)CN2CCOCC2)ccc2c1N=C(NC(=O)c1cccnc1)N1CCN=C21 [Example 3, N-(8-{[(2S)-2-hydroxy-3-(morpholin-4-yl)propyl]oxy}-7-methoxy-2,3-dihydroimidazo[1,2-c]quinazolin-5-yl)pyridine-3-carboxamide] | 103 | – | 92.9 | – | – |
| COc1c(OC[C@H](O)CN2CCC2)ccc2c1N=C(NC(=O)c1cccnc1C)N1CCN=C21 [Example 16, N-(8-{[(2R)-3-(Azetidin-1-yl)-2-hydroxypropyl]oxy}-7-methoxy-2,3-dihydroimidazo[1,2-c]quinazolin-5-yl)-2-methylpyridine-3-carboxamide] | 109 | 10 to 50 | 87.7 | 10 to 50 | 3.94 |
| COc1c(OC[C@H](O)CN2CCOCC2)ccc2c1N=C(NC(=O)c1cnc3[nH]cnc3c1)N1CCN=C21 [Example 30, N-(8-{[(2R)-2-Hydroxy-3-(morpholin-4-yl)propyl]oxy}-7-methoxy-2,3-dihydroimidazo[1,2-c]quinazolin-5-yl)-3H-imidazo[4,5-b]pyridine-6-carboxamide] | 110 | < 10 | 108 | 10 to 50 | 8.83 |
| COc1c(OC[C@H](O)CN2CCOCC2)ccc2c1N=C(NC(=O)c1cccnc1C)N1CCN=C21 [Example 14, N-(8-{[(2R)-2-Hydroxy-3-(morpholin-4-yl)propyl]oxy}-7-methoxy-2,3-dihydroimidazo[1,2-c]quinazolin-5-yl)-2-methylpyridine-3-carboxamide] | 104 | < 10 | 102 | 10 to 50 | 3.09 |
| COc1c(OC[C@H](O)CN(C)C)ccc2c1N=C(NC(=O)c1cccnc1)N1CCN=C21 [Example 11, N-(8-{[(2R)-3-(dimethylamino)-2-hydroxypropyl]oxy}-7-methoxy-2,3-dihydroimidazo[1,2-c]quinazolin-5-yl)pyridine-3-carboxamide] | 82 | 10 to 50 | 95.5 | 10 to 50 | 1.60 |
| COc1c(OC[C@H](O)CN2CCCC2)ccc2c1N=C(NC(=O)c1cccnc1)N1CCN=C21 [Example 8, N-(8-{[(2R)-2-hydroxy-3-(pyrrolidin-1-yl)propyl]oxy}-7-methoxy-2,3-dihydroimidazo[1,2-c]quinazolin-5-yl)pyridine-3-carboxamide] | 102 | < 10 | 101 | 10 to 50 | 2.62 |
| COc1c(OC[C@H](O)CN2CC3CCC(C2)O3)ccc2c1N=C(NC(=O)c1cnc(N)nc1)N1CCN=C21 [Example 28, 2-Amino-N-(8-{[(2R)-2-hydroxy-3-(8-oxa-3-azabicyclo[3.2.1]oct-3-yl)propyl]oxy}-7-methoxy-2,3-dihydroimidazo[1,2-c]quinazolin-5-yl)pyrimidine-5-carboxamide dihydrochloride] | 102 | < 10 | 102 | < 10 | – |
| COc1c(OC[C@H](O)CN2CCCCC2)ccc2c1N=C(NC(=O)c1cccnc1)N1CCN=C21 [Example 9, N-(8-{[(2R)-2-Hydroxy-3-(piperidin-1-yl)propyl]oxy}-7-methoxy-2,3-dihydroimidazo[1,2-c]quinazolin-5-yl)pyridine-3-carboxamide] | 104 | < 10 | 97.2 | 10 to 50 | 2.02 |

Next, values leading:

| inhibition at 0.93 µM [1] [%] | IC50 [1] [nM] | inhibition at 0.93 µM [2] [%] | IC50 [2] [nM] | PI3K beta average IC50/PI3K alpha average IC50 [2] | Compound |
| --- | --- | --- | --- | --- | --- |
| 102 | < 10 | 106 | < 10 | 6.75 | COc1c(OC[C@H](O)CN(C)C)ccc2c1N=C(NC(=O)c1cnc(N)nc1)N1CCN=C21 [Example 29, 2-Amino-N-(8-{[(2R)-3-(dimethylamino)-2-hydroxypropyl]oxy}-7-methoxy-2,3-dihydroimidazo[1,2-c]quinazolin-5-yl)pyrimidine-5-carboxamide] |
| 95.7 | < 10 | 99.3 | 10 to 50 | 5.83 | COc1c(OC[C@H](O)CN(C(C)C)C(C)C)ccc2c1N=C(NC(=O)c1cncs1)N1CCN=C21 [Example 41, N-(8-{[(2R)-3-(dipropan-2-ylamino)-2-hydroxypropyl]oxy}-7-methoxy-2,3-dihydroimidazo[1,2-c]quinazolin-5-yl)-1,3-thiazole-5-carboxamide] |
| 92.8 | < 10 | 95.1 | < 10 | 5.64 | COc1c(OC[C@H](O)CN2CCCC2)ccc2c1N=C(NC(=O)c1scnc1C)N1CCN=C21 [Example 38, N-(8-{[(2R)-2-Hydroxy-3-(pyrrolidin-1-yl)propyl]oxy}-7-methoxy-2,3-dihydroimidazo[1,2-c]quinazolin-5-yl)-4-methyl-1,3-thiazole-5-carboxamide] |
| 103 | < 10 | 93.7 | 10 to 50 | 2.98 | COc1c(OC[C@H](O)CN2CCCCC2)ccc2c1N=C(NC(=O)c1cncs1)N1CCN=C21 [Example 37, N-(8-{[(2R)-2-Hydroxy-3-(piperidin-1-yl)propyl]oxy}-7-methoxy-2,3-dihydroimidazo[1,2-c]quinazolin-5-yl)-1,3-thiazole-5-carboxamide] |
| 94.2 | < 10 | 97.1 | 10 to 50 | 7.21 | COc1c(OC[C@H](O)CN2C[C@@H](C)O[C@@H](C)C2)ccc2c1N=C(NC(=O)c1cncs1)N1CCN=C21 [Example 34, N-[8-({(2R)-3-[(2R,6S)-2,6-dimethylmorpholin-4-yl]-2-hydroxypropyl}oxy)-7-methoxy-2,3-dihydroimidazo[1,2-c]quinazolin-5-yl]-1,3-thiazole-5-carboxamide] |
| 102 | < 10 | 98.6 | 10 to 50 | 4.20 | COc1c(OC[C@H](O)CN(C(C)C)C(C)C)ccc2c1N=C(NC(=O)c1cccnc1C)N1CCN=C21 [Example 20, N-(8-{[(2R)-3-(dipropan-2-ylamino)-2-hydroxypropyl]oxy}-7-methoxy-2,3-dihydroimidazo[1,2-c]quinazolin-5-yl)-2-methylpyridine-3-carboxamide] |
| 96.1 | < 10 | 95.5 | 10 to 50 | 5.91 | COc1c(OC[C@H](O)CN2CCOCC2)ccc2c1N=C(NC(=O)c1cncs1)N1CCN=C21 [Example 32, N-(8-{[(2R)-2-Hydroxy-3-(morpholin-4-yl)propyl]oxy}-7-methoxy-2,3-dihydroimidazo[1,2-c]quinazolin-5-yl)-1,3-thiazole-5-carboxamide] |
